Assays:
[1] = target: homomeric ρ1 GABAC receptor (GABAρ1) (Homo sapiens, UniProt P24046); test: two-electrode voltage clamp in Xenopus oocytes, potentiation of GABA current; format: cell-based; details: 3000 µM, GABA 0.3 μM, pH 7.0, -70 mV
α1β2 GABAA receptor = α1β2 GABAA receptor (Rattus norvegicus, UniProt P62813+P63138); test: whole-cell patch clamp in HEK […] cells, potentiation of GABA current; format: cell-based; details: GABA 1 μM (EC50); pH 7.4; -60 mV; positive modulator
α1β2 GABAA receptor, sequence (P62813 28-455): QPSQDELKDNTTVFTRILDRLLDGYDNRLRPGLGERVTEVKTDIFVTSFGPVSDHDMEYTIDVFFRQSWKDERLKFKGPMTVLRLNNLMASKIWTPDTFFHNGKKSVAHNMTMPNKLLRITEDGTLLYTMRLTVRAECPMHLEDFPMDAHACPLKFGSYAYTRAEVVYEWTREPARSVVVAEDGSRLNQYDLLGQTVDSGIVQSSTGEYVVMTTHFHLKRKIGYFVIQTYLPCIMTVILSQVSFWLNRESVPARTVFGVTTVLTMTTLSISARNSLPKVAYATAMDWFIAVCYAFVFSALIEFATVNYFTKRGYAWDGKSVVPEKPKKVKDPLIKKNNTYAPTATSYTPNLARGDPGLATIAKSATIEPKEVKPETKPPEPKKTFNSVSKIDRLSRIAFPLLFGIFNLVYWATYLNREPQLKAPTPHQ
α1β2 GABAA receptor, sequence (P63138 26-474): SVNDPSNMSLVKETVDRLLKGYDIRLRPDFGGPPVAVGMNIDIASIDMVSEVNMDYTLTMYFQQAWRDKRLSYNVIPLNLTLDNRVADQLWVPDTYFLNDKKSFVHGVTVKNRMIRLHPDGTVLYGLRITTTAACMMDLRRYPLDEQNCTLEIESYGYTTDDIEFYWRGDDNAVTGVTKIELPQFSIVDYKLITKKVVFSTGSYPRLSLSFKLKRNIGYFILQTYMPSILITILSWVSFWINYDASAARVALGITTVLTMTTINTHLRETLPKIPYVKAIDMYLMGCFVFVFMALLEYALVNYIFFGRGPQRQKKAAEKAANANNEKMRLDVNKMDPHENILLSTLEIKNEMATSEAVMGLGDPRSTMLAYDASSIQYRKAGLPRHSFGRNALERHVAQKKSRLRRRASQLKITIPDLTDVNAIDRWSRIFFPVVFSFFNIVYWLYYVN

homomeric ρ1 GABAC receptor (GABAρ1), sequence (P24046 22-479): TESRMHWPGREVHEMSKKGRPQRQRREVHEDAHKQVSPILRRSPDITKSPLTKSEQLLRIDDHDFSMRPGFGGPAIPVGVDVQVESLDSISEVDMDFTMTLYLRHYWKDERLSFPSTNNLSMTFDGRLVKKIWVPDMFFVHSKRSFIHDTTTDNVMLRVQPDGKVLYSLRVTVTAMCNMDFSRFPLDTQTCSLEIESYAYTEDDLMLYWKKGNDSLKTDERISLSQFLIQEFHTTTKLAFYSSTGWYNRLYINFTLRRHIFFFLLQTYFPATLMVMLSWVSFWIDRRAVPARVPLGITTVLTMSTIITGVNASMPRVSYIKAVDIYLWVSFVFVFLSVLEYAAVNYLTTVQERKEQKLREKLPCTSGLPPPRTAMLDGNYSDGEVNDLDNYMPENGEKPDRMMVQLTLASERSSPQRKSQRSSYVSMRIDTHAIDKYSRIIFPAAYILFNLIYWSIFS

Row | SMILES | % Potentiation ([1]; positive allosteric modulator) [%] | % potentiation at 10 mM (α1β2 GABAA receptor) | % Potentiation [1] [%]
1 | O=C1O[C@H]([C@@H](O)CO)C(O)=C1O [Asc, Ascorbic acid] | 139.5 ± 87.5 | ~ 600% | –
2 | O=C1O[C@H]([C@H](O)CO)C(O)=C1O [D-isoAsc, D-isoascorbic acid] | 33.5 ± 12.5 | – | –
3 | O=C1O[C@H]([C@@H](O)CO)C(=O)C1=O [DHA, L-dehydroascorbic acid] | – | – | -1.6 ± 4.2

Reference: PMC3160198 (The Journal of neuroscience : the official journal of the …, 2011)
